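Values below derive from 48-hour exposures of cells grown in 96-well plates, with endpoints linearly interpolated between the two concentrations bracketing the appropriate inhibition level. GI50: concentration for 50% inhibition of growth. TGI denotes the concentration required for complete inhibition of growth.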
Legend:
Assay in all cases: NCI tumour cell line growth inhibition, 48 h
[1] = test system: K-562 leukemia
[2] = test system: OVCAR-8 ovarian
[3] = test system: HT29 colon
[4] = test system: HL-60(TB) leukemia
[5] = test system: SN12C renal
[6] = test system: T-47D breast
[7] = test system: OVCAR-3 ovarian
[8] = test system: SK-MEL-28 melanoma
[9] = test system: A549 NSCLC
[10] = test system: UO-31 renal
[11] = test system: HCT-15 colon
[12] = test system: LOX IMVI melanoma
[13] = test system: ACHN renal
[14] = test system: CAKI-1 renal
[15] = test system: MDA-MB-468 breast
[16] = test system: U251 CNS
[17] = test system: M14 melanoma
[18] = test system: NCI-H226 lung
[19] = test system: PC-3 prostate
[20] = test system: SR leukemia
[21] = test system: NCI-H522 lung
[22] = test system: HOP-92 NSCLC
[23] = test system: COLO 205 colon
[24] = test system: SF-295 CNS
[25] = test system: SF-268 CNS
[26] = test system: MALME-3M melanoma
[27] = test system: TK-10 renal
[28] = test system: NCI-H460 lung
[29] = test system: MOLT-4 leukemia
[30] = test system: MDA-MB-435
[31] = test system: NCI/ADR-RES ovarian
[32] = test system: MDA-MB-231 breast
[33] = test system: SK-MEL-5 melanoma
[34] = test system: RXF 393 renal
[35] = test system: SK-OV-3 ovarian
[36] = test system: HS 578T breast
[37] = test system: SK-MEL-2 melanoma
[38] = test system: EKVX NSCLC
[39] = test system: RPMI-8226 leukemia
[40] = test system: BT-549 breast
[41] = test system: KM12 colon
[42] = test system: SNB-75 CNS
[43] = test system: 786-0 renal
[44] = test system: CCRF-CEM leukemia
[45] = test system: UACC-257 melanoma
[46] = test system: IGROV1 ovarian
[47] = test system: NCI-H23 lung
[48] = test system: SNB-19 CNS
[49] = test system: MCF7 breast
[50] = test system: HCC-2998 colon
[51] = test system: SW-620 colon
[52] = test system: OVCAR-4 ovarian
[53] = test system: SF-539 CNS
[54] = test system: OVCAR-5 ovarian
[55] = test system: DU-145 prostate
[56] = test system: HCT-116 colon
[57] = test system: A498 renal
[58] = test system: HOP-62 NSCLC
[59] = test system: UACC-62 melanoma

O=C(CNc1nc(-c2ccccc2)cs1)Nc1ccccc1 gave a GI50 [1] of 2.32 µM, a TGI [1] greater than 100 µM and a GI50 [2] of 2.96 µM. The TGI [2] was 14.9 µM, the GI50 [3] was 2.06 µM and the TGI [3] was 4.08 µM. The GI50 [4] was 1.83 µM, the TGI [4] was 6.67 µM and the GI50 [5] was 1.54 µM. For the same compound, the TGI [5] was 3.44 µM, the GI50 [6] was 2.57 µM and the TGI [6] was 10.2 µM. It also gave a GI50 [7] of 1.93 µM, a TGI [7] of 4.36 µM and a GI50 [8] of 2.56 µM. The TGI [8] was 6.81 µM, the GI50 [9] was 3.25 µM and the TGI [9] was 13.5 µM. It also gave a GI50 [10] of 2.37 µM, a TGI [10] of 12.9 µM and a GI50 [11] of 1.61 µM. It also gave a TGI [11] of 3.36 µM, a GI50 [12] of 1.21 µM and a TGI [12] of 2.7 µM. The GI50 [13] was 2.6 µM, the TGI [13] was 10.6 µM and the GI50 [14] was 2.2 µM. For the same compound, the TGI [14] was 10.6 µM, the GI50 [15] was 1.55 µM and the TGI [15] was 3.2 µM. It also gave a GI50 [16] of 1.56 µM, a TGI [16] of 3.34 µM and a GI50 [17] of 1.52 µM. The TGI [17] was 3.49 µM, the GI50 [18] was 1.94 µM and the TGI [18] was 7.99 µM. For the same compound, the GI50 [19] was 2.96 µM, the TGI [19] was 30.3 µM and the GI50 [20] was 1.42 µM. For the same compound, the TGI [20] was greater than 100 µM, the GI50 [21] was 1.53 µM and the TGI [21] was 3.02 µM. The GI50 [22] was 3.47 µM, the TGI [22] was 16.5 µM and the GI50 [23] was 2.16 µM. The TGI [23] was 4.57 µM, the GI50 [24] was 2.48 µM and the TGI [24] was 11.6 µM. For the same compound, the GI50 [25] was 3.33 µM, the TGI [25] was 22.9 µM and the GI50 [26] was 1.54 µM. It also gave a TGI [26] of 3.23 µM, a GI50 [27] of 4.64 µM and a TGI [27] of 12.4 µM. The GI50 [28] was 2.94 µM, the TGI [28] was 11.8 µM and the GI50 [29] was 1.83 µM. The TGI [29] was 7.46 µM, the GI50 [30] was 2.05 µM and the TGI [30] was 5.32 µM. The GI50 [31] was 2.29 µM, the TGI [31] was 6.16 µM and the GI50 [32] was 1.93 µM. The TGI [32] was 7.28 µM, the GI50 [33] was 1.62 µM and the TGI [33] was 2.98 µM. The GI50 [34] was 1.85 µM, the TGI [34] was 3.86 µM and the GI50 [35] was 2.92 µM. The TGI [35] was 10.2 µM, the GI50 [36] was 3.04 µM and the TGI [36] was greater than 100 µM. The GI50 [37] was 1.73 µM, the TGI [37] was 4.29 µM and the GI50 [38] was 1.58 µM. For the same compound, the TGI [38] was 3.14 µM, the GI50 [39] was 2.29 µM and the TGI [39] was 80.9 µM. The GI50 [40] was 2.25 µM, the TGI [40] was 4.23 µM and the GI50 [41] was 3.87 µM. The TGI [41] was 14.9 µM, the GI50 [42] was 1.05 µM and the TGI [42] was 6.68 µM. It also gave a GI50 [43] of 2.63 µM, a TGI [43] of 5.48 µM and a GI50 [44] of 1.88 µM. The TGI [44] was greater than 100 µM, the GI50 [45] was 2.05 µM and the TGI [45] was 8.33 µM. The GI50 [46] was 1.5 µM, the TGI [46] was 4.87 µM and the GI50 [47] was 1.48 µM. It also gave a TGI [47] of 3.15 µM, a GI50 [48] of 1.82 µM and a TGI [48] of 4.16 µM. The GI50 [49] was 1.4 µM, the TGI [49] was 3.41 µM and the GI50 [50] was 1.77 µM. For the same compound, the TGI [50] was 3.88 µM, the GI50 [51] was 2.46 µM and the TGI [51] was 6.04 µM. For the same compound, the GI50 [52] was 4.88 µM, the TGI [52] was 18.1 µM and the GI50 [53] was 1.77 µM. The TGI [53] was 3.22 µM, the GI50 [54] was 2.95 µM and the TGI [54] was 7.03 µM. The GI50 [55] was 3.74 µM, the TGI [55] was 13.4 µM and the GI50 [56] was 1.81 µM. For the same compound, the TGI [56] was 5.75 µM, the GI50 [57] was 11.1 µM and the TGI [57] was 23.5 µM. It also gave a GI50 [58] of 2.17 µM, a TGI [58] of 6.31 µM and a GI50 [59] of 1.14 µM. The TGI [59] was 2.58 µM.
